According to US20140037625A1, “BIOMARKERS AND METHODS OF TREATMENT” (GENENTECH, INC., priority 2010, published 2014):
Where two headings read alike, the source gives them in different places.

Key:
NSCLC patients = conditions: cited from earlier work
[1] = system: patients with advanced NSCLC; test: Exploratory biomarker analyses from OAM4558g (MET FISH, mRNA by qRT-PCR) with outcome; format: in vivo, human
Description: MET and EGFR gene copy numbers were evaluated by fluorescent in situ hybridization (FISH). […] True MET amplification was defined as tight gene cluster of greater than or equal to 15 copies of MET in greater than or equal to 10% of tumor cells or a MET/CEP7 ratio of greater than or equal to 2.
MET, HGF, EGFR, AREG, and EREG mRNA expression was evaluated on RNA extracted from macro-dissected tumor tissue slides using the Fluidigm platform. Transcript levels were normalized to the mean of two reference genes that are stably expressed in lung tissue and results are expressed as normalized expression values (2^−ΔCt).
Exploratory tumor biomarkers related to c-Met and/or EGFR signaling were measured by FISH, qRT-PCR or various mutation detection techniques from archival tumor tissue specimens. Plasma HGF levels were measured by ELISA. Analyses with outcome were carried out independent of Met clinical diagnostic status.

[2] = system: patients with second and third-line NSCLC; test: Phase II trial of MetMAb plus erlotinib versus erlotinib plus placebo: safety, disposition and exposure
Source text: (§1) This study was a Phase II, double-blind, randomized, multicenter trial designed to evaluate the preliminary activity and safety of treatment with MetMAb plus Erlotinib versus Erlotinib plus placebo in second and third-line NSCLC. […] Once 120 patients, comprising the “overall” population were enrolled, eligibility was restricted to patients with squamous cell carcinoma (SCC) histology to ensure that a total of approximately 80 patients with SCC are enrolled in the study. Randomization for the first 120 patients comprising the “overall” population was stratified by smoking status (non-smokers and smokers who have quit more than 10 years ago versus current smokers and smokers who have quit less than 10 years ago), performance status and histology, and randomization for the next 50 SCC patients will be stratified by smoking status and performance status. Treatment in each arm was continued until progression of disease, unacceptable toxicity, or any other discontinuation criterion was met. Upon disease progression, patients randomized to the Erlotinib plus placebo arm were given the option to receive MetMAb (in addition to continuing Erlotinib), provided they continue to meet eligibility criteria. Safety data collected from this cross-over was summarized for hypothesis generating purposes.
(§2) Primary and secondary efficacy analyses included all randomized patients, with patients allocated to the treatment arm to which they were randomized. Safety analyses included all randomized patients who received at least one dose of study treatment, with patients allocated to the treatment arm associated with the regimen actually received. Demographic and baseline characteristics (e.g. age and sex) were summarized using means, standard deviations, medians, and ranges for continuous variables and proportions for categorical variables, as appropriate. Summaries were presented by overall patient population and by treatment arm. The baselines value of any variable were defined as the last available value prior to the first administration of study treatment.
(§3) The dose of MetMAb was 15 mg/kg intravenously on Day 1 of a 3-week cycle. The weight at screening was used to determine the actual dose of MetMAb. The dose of erlotinib was 150 mg by mouth each day of a 3-week cycle. Dosage level for erlotinib may have been reduced to 100 mg (first reduction) or 50 mg (second reduction) for toxicity likely attributable to erlotinib (e.g., rash, diarrhea).

[3] = system: patients with second and third-line NSCLC; conditions: for Difference in ORR, % (95% CI): Erlotinib + MetMAb vs Erlotinib + Placebo
Source text: The original protocol for this study was described, e.g., in WO2010/045345; however, the study was later modified to add enrollment of 50 patients with squamous cell histology as follows. […] During this study, patients and treating individuals, including the investigators, were blinded to the treatment assignment of study drug (MetMAb or placebo).
During the study, data on tumor measurement and survival status were collected for evaluation of PFS, overall survival (OS) and overall response rate (ORR). CT scans were obtained at baseline and for the first four cycles at an approximately every 6 week intervals (i.e., every two three-week cycles of MetMAb/placebo). After four cycles, routine CT scans were performed approximately every 9 weeks (every 3 cycles of MetMAb/placebo). FDG-PET imaging is obtained at baseline and at Day 10-14 of Cycle 1. During the course of this study, an Image Reading facility (IRF) evaluated FDG-PET results and determined whether FDG-PET imaging should continue in all participating sites or whether FDG-PET imaging should be confined to a few sites based on data received.
The primary outcome measure of this study was progression free survival (PFS) defined by the Response Evaluation Criteria In Solid Tumors (RECIST)) 1.0 or death from any cause within thirty days of the last treatment.
(a) overall response (OR) (partial response plus complete response) as determined using RECIST 1.0 in Met positive tumors and overall; and
(c) Overall survival (time from randomization until death from any cause within 30 days of the last study treatment).
Kaplan-Meier methodology was used to estimate the median PFS for each treatment arm. The stratification factors were determined by the […] (CRF) data, not by data collected by the interactive voice […] system at the time of randomization unless the CRF data was missing. Estimation of the hazard ration (i.e., the magnitude of the treatment effect and the 95% confidence interval) was determined using a stratified Cox regression model with an indicator variable for MetMAb treatment. The same analysis methods as those described for PFS in “overall” population patients were applied to patients with met positive tumors and to patients with SCC histology. All deaths from any cause within 30 days of the last treatment were included as PFS events. Objective response was defined as a complete or partial response determined on two consecutive occasions greater than or equal to four weeks apart. Patients without a post-baseline tumor assessment were considered non-responders. An estimate of the objective response rate and 95% confidence interval (Blyth-Still-Casella) was calculated for each treatment arm. Confidence intervals for the difference in tumor response rate (Satnes and Snell 1980; Berger and Boos 1994) were calculated. For patients with an objective response, duration of objective response was defined as the time from the initial response to disease progression or death from any cause within 30 days of the last treatment. Methods for handling censoring and for analysis were the same as described for PFS. All secondary efficacy endpoints were assessed for patients with met positive tumors, patients with SCC histology and by “overall” patient population.

[4] = system: patients with second and third-line NSCLC; conditions: in vivo
Source text: as §1, §2, §3

[5] = Met Diagnostic-Negative, data cut-off Nov. 15, 2010
[6] = Met Diagnostic-Positive, data cut-off Nov. 15, 2010
[7] = Met High, data cut-off Jun. 8, 2010
[8] = Met Low, data cut-off Jun. 8, 2010
[9] = all patients, data cut-off Jun. 8, 2010
[10] = Met diagnostic negative patients, MetMAb+erlotinib vs erlotinib and placebo, data cut-off Nov. 15, 2010
[11] = Met diagnostic positive patients, MetMAb plus erlotinib vs placebo+erlotinib, data cut-off Nov. 15, 2010
[12] = Met diagnostic positive patients, data cut-off Nov. 15, 2010
[13] = Met high patients, MetMAb plus erlotinib vs placebo plus erlotinib, data cut-off Jun. 8, 2010
[14] = Met high patients, data cut-off Jun. 8, 2010
[15] = Met low patients, ME vs erlotinib and placebo, data cut-off Jun. 8, 2010
[16] = Overall, data cut-off Jun. 8, 2010
[17] = overall (ITT) population, MetMAb plus erlotinib vs placebo plus erlotinib, data cut-off Jun. 8, 2010
[18] = overall (ITT) population, MetMAb plus erlotinib vs placebo plus erlotinib, data cut-off Nov. 15, 2010

Compound: bevacizumab: anti-VEGF antibody
- bleeding risk (NSCLC patients; in vivo): increased bleeding risk

Compound: MetMAb: known recombinant, humanized, monovalent monoclonal antibody directed against c-met
- OS HR ([1]; EGFR-wildtype patients that were Met diagnostic positive and MET FISH negative): 0.45
- outcome HR ([1]; EGFR-wildtype patients, MET FISH positive at lower threshold ≧4 copies): 0.89
- frequency of peripheral edema in MetMAb treated arms ([2]; both Met diagnostic positive and diagnostic negative populations, data cut-off Nov. 15, 2010): higher

Compound: Nc1nc2[nH]cc(CCc3ccc(C(=O)N[C@@H](CCC(=O)O)C(=O)O)cc3)c2c(=O)[nH]1 [Pemtrexed]
- efficacy in SCC (NSCLC patients; NSCLC SCC, Scagliotti et al, 2008): relatively lower efficacy
- activity in adenocarcinoma (NSCLC patients; NSCLC adenocarcinoma, Scagliotti et al, 2008): active

Compound: Erlotinib + MetMAb: MetMAb (15 mg/kg IV q3wks) plus erlotinib treatment, interchangeably termed ME
- outcome HR ([1]; AREG mRNA High, MetMAb + Erlotinib vs Placebo + Erlotinib): 0.77
- outcome Median (mo) ([1]; AREG mRNA Low (median 7.11)): 6.5 mo
- outcome HR ([1]; AREG mRNA Low, MetMAb + Erlotinib vs Placebo + Erlotinib): 1.31
- outcome Median (mo) ([1]; EGFR mRNA High (median 7.75)): 7.1 mo
- outcome HR ([1]; EGFR mRNA High, MetMAb + Erlotinib vs Placebo + Erlotinib): 1.1
- outcome Median (mo) ([1]; EGFR mRNA Low (median 7.75)): 11.7 mo
- outcome HR ([1]; EGFR mRNA Low, MetMAb + Erlotinib vs Placebo + Erlotinib): 0.88
- outcome Median (mo) ([1]; EREG mRNA High (median 0.26)): 10.2 mo
- outcome HR ([1]; EREG mRNA High, MetMAb + Erlotinib vs Placebo + Erlotinib): 0.67
- outcome Median (mo) ([1]; EREG mRNA Low (median 0.26)): 8.1 mo
- outcome HR ([1]; EREG mRNA Low, MetMAb + Erlotinib vs Placebo + Erlotinib): 1.34
- outcome Median (mo) ([1]; MET mRNA High (median 3.16)): 8.7 mo
- outcome HR ([1]; MET mRNA High, MetMAb + Erlotinib vs Placebo + Erlotinib): 0.59
- outcome Median (mo) ([1]; MET mRNA Low (median 3.16)): 11.7 mo
- outcome HR ([1]; MET mRNA Low, MetMAb + Erlotinib vs Placebo + Erlotinib): 1.48
- Summary of safety data: Adverse events leading to death ([2]; Met Diagnostic Negative, data cut-off Nov. 15, 2010): 3 (9.7) No. of patients (%)
- Summary of safety data: Adverse events leading to death ([2]; Met Diagnostic Positive, data cut-off Nov. 15, 2010): 1 (2.9) No. of patients (%)
- Patient disposition: Death [2, 5]: 2 (6.5) No. of patients (%)
- Patient disposition: Disease progression [2, 5]: 22 (71.0) No. of patients (%)
- Patient disposition: Death [2, 6]: 0 No. of patients (%)
- Patient disposition: Disease progression [2, 6]: 18 (51.4) No. of patients (%)
- Summary of safety: AEs leading to death [2, 7]: 1 (2.9) n (%)
- All adverse events: Dyspnea [2, 8]: 4 (14.8) n (%)
- Summary of safety: AEs leading to death [2, 8]: 4 (14.8) n (%)
- Grade 3-5 adverse events: Pneumonia ([2]; Met low, data cut-off Jun. 8, 2010): 4 (14.8) n (%)
- Patient disposition: Deaths [2, 9]: 2 (3.1) n (%)
- Patient disposition: Disease progression [2, 9]: 34 (53.1) n (%)
- overall survival treatment effect HR (unstratified Cox model) ([3]; 10% Met diagnostic positive and not Met diagnostic positive using the 50% cutoff): 2.83
- overall survival treatment effect HR (unstratified Cox model) ([3]; 10% Met diagnostic positive patients (>=10% tumor cells IHC 2+ or 3+)): 0.52
- overall survival treatment effect HR (unstratified Cox model) ([3]; 90% Met diagnostic positive patients): 0.30
- Difference in ORR, % (95% CI) [3, 7]: 5.2 (−6.0-16.5) %
- # pts PD by RECIST [3, 7]: n = 17
- No. of patients with OR (%) [3, 7]: 3 (8.6) No. of patients (%)
- Pattern of progression: PD by new lesions [3, 7]: 9 (52.9)
- Pattern of progression: PD on target lesions [3, 7]: 11 (64.7)
- PFS benefit by subgroup ([3]; Met IHC status 0 and 1 patients, data cut-off Jun. 8, 2010): did not benefit
- PFS benefit by subgroup ([3]; Met IHC status 3 and 2 patients, data cut-off Jun. 8, 2010): showed benefit
- # pts PD by RECIST [3, 8]: n = 15
- Pattern of progression: PD by new lesions [3, 8]: 7 (46.7)
- Pattern of progression: PD on target lesions [3, 8]: 11 (73.3)
- OS benefit by subgroup ([3]; Met diagnostic negative IHC status 0 and 1 patients, data cut-off Nov. 15, 2010): did not benefit
- OS HR [3, 10]: 1.78
- PFS HR [3, 10]: 1.82
- OS benefit by subgroup ([3]; Met diagnostic positive IHC status 3 and 2 patients, data cut-off Nov. 15, 2010): showed benefit
- OS Hazard ratio (HR) [3, 11]: 0.37
- PFS Hazard ratio (HR) [3, 11]: 0.53
- median OS [3, 12]: 12.6 months
- median PFS [3, 12]: 2.9 months
- overall survival treatment effect HR (unstratified Cox model) ([3]; Met diagnostic positive using 50% cutoff): 0.38
- overall survival treatment effect HR (unstratified Cox model) ([3]; Met diagnostic positive using 50% cutoff and not 90% Met diagnostic positive): 0.75
- OS benefit by subgroup ([3]; Met high IHC status 3 and 2 patients, data cut-off Jun. 8, 2010): showed benefit
- OS Hazard ratio (HR) [3, 13]: 0.55
- PFS Hazard ratio (HR) [3, 13]: 0.56
- median OS [3, 14]: 7.7 weeks
- median PFS [3, 14]: 12.4 weeks
- OS HR ([3]; Met high population excluding patients with known EGFR mutations, relative to placebo+erlotinib, data cut-off Jun. 8, 2010): 0.55
- OS benefit by subgroup ([3]; Met low IHC status 0 and 1 patients, data cut-off Jun. 8, 2010): did not benefit
- OS HR [3, 15]: 3.26
- PFS HR [3, 15]: 2.01
- patients progressed by the first assessment (CAT scan at week 6) ([3]; Met low patients, data cut-off Jun. 8, 2010): ~70%
- patients progressed by the first assessment (CAT scan at week 6) ([3]; Met low patients, data cut-off Nov. 15, 2010): ~70%
- Difference in ORR, % (95% CI) [3, 16]: 1.6 (−6.3-9.4) %
- No. of patients with OR (%) [3, 16]: 4 (6.3) No. of patients (%)
- OS HR [3, 17]: 1.09
- PFS HR [3, 17]: 1.09
- OS Hazard ratio [3, 18]: 0.8
- PFS Hazard ratio [3, 18]: 1.09
- Objective response rate ([3]; overall population, data cut-off Jun. 8, 2010): 6.3%
- All adverse events: Dyspnea [4]: 7 (20.0) n (%)
- Grade 3-5 adverse events: Pneumonia [4]: 1 (2.9) n (%)
- Patient disposition: Adverse events [4]: 7 (10.9) n (%)
- Safety: tolerability [4]: well-tolerated
